In ChEMBL document CHEMBL1201862, “PubChem BioAssay data set” (2004):
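Exposure lasted 48 hours, with cells grown in 96-well plates and compounds tested at five concentrations. At the GI50, growth is halved.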 Activity calls are given as the source filed them. No stated cut-off is given here; in the data, active = GI50 up to about 1.1 µM and inactive = higher.

How the values were obtained:
Experiment in all cases: NCI-60 cell line screen, 48 h
[1] = tested on: 786-0
[2] = tested on: COLO 205
[3] = tested on: DLD-1
[4] = tested on: EKVX
[5] = tested on: HCC 2998
[6] = tested on: HL-60
[7] = tested on: NCI-H226
[8] = tested on: NCI-H522
[9] = tested on: RPMI-8226
[10] = tested on: SK-OV-3
[11] = tested on: HOP-62
[12] = tested on: NCI-H460
[13] = tested on: OVCAR-4
[14] = tested on: SK-MEL-5
[15] = tested on: U-251
[16] = tested on: A498
[17] = tested on: BT-549
[18] = tested on: DU-145
[19] = tested on: Hs-578T
[20] = tested on: PC-3

For `C=CCC1(C(=O)OC(C)(C)C)C(OC)=C(C(=O)OC(C)(C)C)C2C1C(C(=O)OC(C)(C)C)=C(OC)C2(CC=C)C(=O)OC(C)(C)C` (stereo not drawn), the GI50 [1] was > 100 µM (inactive), the GI50 [2] was > 100 µM (inactive) and the GI50 [3] was > 100 µM (inactive). For the same compound, the GI50 [4] was > 100 µM (inactive), the GI50 [5] was > 100 µM (inactive) and the GI50 [6] was > 100 µM (inactive). The GI50 [7] was > 100 µM (inactive), the GI50 [8] was > 100 µM (inactive) and the GI50 [9] was > 100 µM (inactive). The GI50 [10] was > 100 µM (inactive).
`Cc1ccc(S(=O)(=O)OC2CC=CC2)cc1` was tested, and the GI50 [1] was > 100 µM (inactive), the GI50 [2] was > 100 µM (inactive) and the GI50 [3] was > 100 µM (inactive). The GI50 [4] was > 100 µM (inactive), the GI50 [5] was > 100 µM (inactive) and the GI50 [6] was > 100 µM (inactive). The GI50 [11] was > 100 µM (inactive), the GI50 [7] was > 100 µM (inactive) and the GI50 [12] was > 100 µM (inactive). For the same compound, the GI50 [13] was > 100 µM (inactive), the GI50 [9] was > 100 µM (inactive) and the GI50 [14] was > 100 µM (inactive). For the same compound, the GI50 [10] was > 100 µM (inactive) and the GI50 [15] was > 100 µM (inactive).
`CC(C)(C)OC(=O)NCCCCC1NC(=O)[C@@H]2Cc3c([nH]c4ccccc34)C(C3CCCCC3)N2C1=O` (stereo partly drawn) was tested, and the GI50 [1] was 27 µM (inactive), the GI50 [16] was > 100 µM (inactive) and the GI50 [17] was 47.6 µM (inactive). For the same compound, the GI50 [2] was 20.2 µM (inactive), the GI50 [18] was 54.8 µM (inactive) and the GI50 [4] was 33.7 µM (inactive). For the same compound, the GI50 [5] was 13.9 µM (inactive), the GI50 [6] was 31.1 µM (inactive) and the GI50 [11] was 41.4 µM (inactive). The GI50 [19] was 23.6 µM (inactive), the GI50 [7] was 75 µM (inactive) and the GI50 [12] was 29.2 µM (inactive). The GI50 [8] was 45.3 µM (inactive), the GI50 [13] was 35.8 µM (inactive) and the GI50 [20] was 18.3 µM (inactive). For the same compound, the GI50 [9] was 12.2 µM (inactive), the GI50 [14] was 33.6 µM (inactive) and the GI50 [10] was 53.7 µM (inactive). For the same compound, the GI50 [15] was 31.5 µM (inactive).
With `CC(=O)OCC(=O)O[C@@H]1[C@H]2[C@@H](OC(=O)c3ccccc3)[C@@H](C)C[C@]2(O)[C@H](OC(C)=O)[C@@]2(C)C[C@]1(OC(C)=O)C[C@H]1C(=O)C(C)(C)[C@@H](OC(C)=O)[C@@H]12` the GI50 [1] was > 20 µM (inactive), the GI50 [16] was 13.4 µM (inactive) and the GI50 [17] was > 25 µM (inactive). For the same compound, the GI50 [2] was 4.75 µM (inactive), the GI50 [18] was > 25 µM (inactive) and the GI50 [4] was 24.8 µM (inactive). For the same compound, the GI50 [5] was 9.38 µM (inactive), the GI50 [6] was 2.77 µM (inactive) and the GI50 [11] was 5.78 µM (inactive). For the same compound, the GI50 [19] was 9.55 µM (inactive), the GI50 [7] was > 25 µM (inactive) and the GI50 [12] was 0.991 µM (active). For the same compound, the GI50 [8] was > 25 µM (inactive), the GI50 [13] was > 20.9 µM (inactive) and the GI50 [20] was 22.4 µM (inactive). For the same compound, the GI50 [9] was 17.9 µM (inactive), the GI50 [14] was 9.46 µM (inactive) and the GI50 [10] was > 25 µM (inactive). For the same compound, the GI50 [15] was > 25 µM (inactive).
With `COC(=O)c1c2c(cc3c1CC1(C3)Cc3ccc4c(c3C1=O)CCC4)CCC2` (stereo not drawn) the GI50 [1] was 3.51 µM (inactive), the GI50 [16] was 3.42 µM (inactive) and the GI50 [17] was 2.52 µM (inactive). For the same compound, the GI50 [2] was 2.37 µM (inactive), the GI50 [18] was 4.65 µM (inactive) and the GI50 [4] was 8.17 µM (inactive). For the same compound, the GI50 [5] was 6.52 µM (inactive), the GI50 [6] was 2.52 µM (inactive) and the GI50 [11] was 3.25 µM (inactive). The GI50 [19] was 1.91 µM (inactive), the GI50 [7] was 5.09 µM (inactive) and the GI50 [12] was 4.84 µM (inactive). The GI50 [8] was 1.66 µM (inactive), the GI50 [13] was 10.2 µM (inactive) and the GI50 [20] was 1.79 µM (inactive). For the same compound, the GI50 [9] was 3.23 µM (inactive), the GI50 [14] was 2.38 µM (inactive) and the GI50 [10] was 3.93 µM (inactive). For the same compound, the GI50 [15] was 3.33 µM (inactive).
In the case of `C=CCn1c(-c2ccc(Cl)cc2Cl)cs/c1=N\c1c(C)n(C)n(-c2ccccc2)c1=O`, the GI50 [1] was 13.1 µM (inactive), the GI50 [16] was 12.4 µM (inactive) and the GI50 [17] was 12.9 µM (inactive). For the same compound, the GI50 [2] was 12.3 µM (inactive), the GI50 [18] was 13.2 µM (inactive) and the GI50 [4] was 3.54 µM (inactive). For the same compound, the GI50 [5] was 15.3 µM (inactive), the GI50 [6] was 6.11 µM (inactive) and the GI50 [11] was 15.2 µM (inactive). For the same compound, the GI50 [19] was 16.1 µM (inactive), the GI50 [7] was 15.7 µM (inactive) and the GI50 [12] was 12.9 µM (inactive). For the same compound, the GI50 [8] was 12.2 µM (inactive), the GI50 [13] was 8.11 µM (inactive) and the GI50 [20] was 5.53 µM (inactive). The GI50 [9] was 7.19 µM (inactive), the GI50 [14] was 3.04 µM (inactive) and the GI50 [10] was 5.04 µM (inactive). For the same compound, the GI50 [15] was 12.5 µM (inactive).
`CCOc1ccc(/N=N/c2ccc3cc(/C(C)=N/NC(=O)/C(C#N)=C\c4ccc(N(CCC#N)CCC#N)cc4)c(=O)oc3c2)cc1` was tested, and the GI50 [1] was > 10 µM (inactive), the GI50 [16] was > 10 µM (inactive) and the GI50 [17] was > 10 µM (inactive). For the same compound, the GI50 [2] was > 10 µM (inactive), the GI50 [18] was > 10 µM (inactive) and the GI50 [4] was > 10 µM (inactive). The GI50 [5] was > 10 µM (inactive), the GI50 [6] was > 10 µM (inactive) and the GI50 [11] was > 10 µM (inactive). For the same compound, the GI50 [19] was > 10 µM (inactive), the GI50 [7] was > 10 µM (inactive) and the GI50 [12] was > 10 µM (inactive). For the same compound, the GI50 [8] was > 10 µM (inactive), the GI50 [13] was > 10 µM (inactive) and the GI50 [20] was > 10 µM (inactive). The GI50 [9] was > 10 µM (inactive), the GI50 [14] was > 10 µM (inactive) and the GI50 [10] was > 10 µM (inactive). The GI50 [15] was > 10 µM (inactive).
In the case of `CC1=C[C@@H](C)C[C@]2(C)CC[C@H](O2)[C@]23CC[C@](C(=O)O)(C[C@H](O2)[C@@H]2O[C@@](C)(CC2=O)[C@@H](O)[C@H]2CC[C@@]4(CCC[C@@H](O4)[C@H](C)C(=O)O[C@H]4C[C@H]([C@]5(O)OCC[C@H](C)[C@@H]5O)O[C@H]4C=C1)O2)O3`, the GI50 [1] was > 10 µM (inactive), the GI50 [16] was > 5.75 µM (inactive) and the GI50 [17] was > 7.83 µM (inactive). For the same compound, the GI50 [2] was > 8.55 µM (inactive), the GI50 [18] was > 10 µM (inactive) and the GI50 [4] was > 10 µM (inactive). The GI50 [5] was > 10 µM (inactive), the GI50 [6] was > 10 µM (inactive) and the GI50 [11] was > 9.59 µM (inactive). The GI50 [19] was > 3.78 µM (inactive), the GI50 [7] was > 5.71 µM (inactive) and the GI50 [12] was > 10 µM (inactive). For the same compound, the GI50 [8] was > 7.71 µM (inactive), the GI50 [13] was > 10 µM (inactive) and the GI50 [20] was > 10 µM (inactive). For the same compound, the GI50 [9] was > 10 µM (inactive), the GI50 [14] was > 7.23 µM (inactive) and the GI50 [10] was > 10 µM (inactive). The GI50 [15] was > 10 µM (inactive).
